Measured values taken from patent publication US6025356A, “Disubstituted trans-3,4,4a,5,6,10b-hexahydro-2H-naphth[1,2-b]-1,4-oxazines” (Adir et Compagnie, priority 1997, dated 2000).
pKd, pKi: −log10 of the molar value. One block for each compound: values may come before it.

Tests used:
[1] = Forced swimming test; type: in vivo, rat
Text: The forced swimming test (Porsolt R. et al, Eur. J. Pharmacol., 1978, 47, 379-91) is a behavioural test which comprises inducing a state of despair in the rat by placing the naive animal in an enclosure full of water, from which it cannot escape, for a period of fifteen minutes. For the first five to ten minutes the rat struggles vigorously, but finally adopts an immobile posture during the last part of the test. Placed in the same enclosure the next day, the animal remains immobile for the majority of the test (5 minutes' duration). The anti-depressants reduce the duration of immobility of the rat during the test.
The experiment is carried out over two days, with a 24-hour interval, on rats of an average weight of 170 g, housed the day before in individual cages, with free access to food and drink.
On the first day, each rat is placed for fifteen minutes in a glass cylinder (20 cm diameter ×40 cm high) filled to a height of 15 cm with water maintained at 25° C. On the second day, the animal is placed in a cylinder again for a period of five minutes; the total period of immobility (in seconds) of the rat is measured. The product or solvent is administered to the animal thirty minutes before the beginning of the test.

[2] = target: T1, human dopamine D2 receptor (Homo sapiens, UniProt P14416); assay: human D2 and D3 receptor binding study (D2)
T1 construct: expressed in transfected cells
T1 sequence (P14416 whole entry): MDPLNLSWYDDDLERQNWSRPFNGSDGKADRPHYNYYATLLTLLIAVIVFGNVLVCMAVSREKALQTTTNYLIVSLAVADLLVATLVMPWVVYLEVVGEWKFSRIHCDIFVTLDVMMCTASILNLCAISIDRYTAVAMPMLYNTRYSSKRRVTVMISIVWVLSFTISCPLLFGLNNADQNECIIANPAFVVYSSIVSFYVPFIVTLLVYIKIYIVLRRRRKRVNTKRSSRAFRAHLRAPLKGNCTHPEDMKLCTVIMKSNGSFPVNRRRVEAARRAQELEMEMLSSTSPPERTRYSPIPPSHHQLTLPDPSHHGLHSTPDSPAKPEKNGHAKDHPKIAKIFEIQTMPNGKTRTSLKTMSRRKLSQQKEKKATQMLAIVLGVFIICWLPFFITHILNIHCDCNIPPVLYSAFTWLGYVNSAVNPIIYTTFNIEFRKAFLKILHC
Description: (§1) A. In vitro: human D2 and D3 receptor binding study
(§2) CHO (Chinese Hamster Ovary) cells are transfected in a stable manner with the gene encoding the human dopamine D2 or D3 receptor in accordance with methods known from the literature. The native cells are deficient in the enzyme DHFR (DiHydroFolate Reductase). […] The transfections are carried out using Lipofectin (Gibco). The CHO cells co-transfected with the human D2 receptor and the phleomycin resistance gene are selected for their resistance to the presence of that antibiotic in the culture medium. The cells transfected with the human D3 receptor are selected in the presence of methotrexate in a medium containing no hypoxanthine/thymidine. The compositions of the culture media used are: for CHO-D2 : DMEM (Dulbecco's Modified Eagle Medium) supplemented with 10% foetal calf serum and hypoxanthine/thymidine; and for CHO-D3 : DMEM supplemented with 10% dialysed foetal calf serum. The cells are harvested at confluence and the membranes are then prepared.
(§3) After a few minutes in the presence of 0.2% trypsin, the cells are recovered and centrifuged at 2,000 g for 5 minutes. […]
(§4) The ranges of concentration of each compound include at least seven points determined in triplicate, each experiment being repeated at least twice.
(§5) The recovered filters are then counted using a gamma counter. […]

[3] = system: dopaminergic cells in the ventral tegmentum area of the rat; assay: Test recording the unitary extracellular electrical activity in the ventral tegmentum area of the rat; type: in vivo; conditions: n = 4
Description: 1. Test recording the unitary extracellular electrical activity in the ventral tegmentum area of the rat
The administration of a dopaminergic agonist decreases the discharge frequency of neurons in a dose-dependent manner. That effect is reversed by haloperidol, a dopaminergic antagonist.
The rats are anaesthetised with chloral hydrate (400 mg/kg, i.p.) and placed in a stereotactic apparatus (Unimecanique, France) after catheterisation of the femoral vein. The level of anaesthesia is maintained by i.p. administration of chloral hydrate every hour; the rectal temperature is maintained at 37±1° C. by means of a thermostatically controlled heated cover. A tungsten microelectrode (10 M.OMEGA., 1 μm) is inserted using an electronic microinsertion device (Unimecanique, France) into the ventral tegmentum area (AP: -5.5/bregma; L: 0.7; H: 7.0-8.5/dura; Paxinos and Watson atlas, 1986). The potentials of the dopaminergic cells are recognised by their morphology (triphasic potentials+/-/+, of a duration greater than 3 msec), their discharge rhythm, whether regular or in bursts of decreasing amplitude, and their discharge frequency, which is from 2 to 8 Hz. A single cell per animal is used for the recording.
After a period≥5 min. (basal activity) and a first injection of carrier (distilled water to which a few drops of dilute lactic acid have been added; pH adjusted to 5 with 1N NaOH), the products of the invention are administered intravenously in cumulatively increasing doses at intervals of 2-3 min..
Acquisition of the data is effected by the software Spike2 (Cambridge Electronic Design, England). The discharge frequency is measured over one minute at the maximum variation between each injection and is expressed as a percentage variation in relation to the basal activity (average of the 5 minutes preceding the first treatment) defined as 100%. The effect of the products is evaluated statistically by a variance analysis over repeated measurements, followed by a Newman-Keuls test for comparing the effects of different doses with the effect of the carrier.

[4] = target: T2, human dopamine D3 receptor (Homo sapiens, UniProt P35462); assay: human D2 and D3 receptor binding study (D3)
T2 construct: expressed in transfected cells
T2 sequence (P35462 whole entry): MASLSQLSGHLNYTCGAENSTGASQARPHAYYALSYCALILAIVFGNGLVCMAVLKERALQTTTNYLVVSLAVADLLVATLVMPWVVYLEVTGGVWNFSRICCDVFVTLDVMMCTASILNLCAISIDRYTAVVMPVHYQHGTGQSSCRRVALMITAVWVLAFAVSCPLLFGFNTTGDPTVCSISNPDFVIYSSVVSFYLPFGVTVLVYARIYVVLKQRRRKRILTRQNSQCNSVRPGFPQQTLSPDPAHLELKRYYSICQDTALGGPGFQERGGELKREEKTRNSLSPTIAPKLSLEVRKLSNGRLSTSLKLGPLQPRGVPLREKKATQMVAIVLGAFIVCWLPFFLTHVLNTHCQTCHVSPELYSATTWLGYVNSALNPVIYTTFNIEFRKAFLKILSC
Description: as §1, §2, §3, §4, §5

[5] = "Rotations" induced by dopaminergic agonists in rats having a unilateral lesion of the Substantia nigra; type: in vivo, male Wistar rats; conditions: Rattus norvegicus, sc; read-out: dose from which active in the rotation test
[6] = [125I]-iodosulpride, CHO membranes, 30 min at 30° C., pKi = -log Ki

pKi [2, 6]: 6.50 | pKi [4, 6]: 8.00
Compound: CCCN1CCO[C@@H]2c3cc(C(N)=O)ccc3CC[C@H]21 (single isomer, unassigned) [Example 3, (+)-Trans-3,4,4a,5,6,10b-hexahydro-9-carbamoyl-4-propyl-2H-naphtho[1,2-b]-1,4-oxazine]
ED50 ([1]; Rattus norvegicus, sc, read-out: ID50 (period of immobility)): 0.41 mg/kg | period of immobility (result in words) ([1]; s.c.): reduces the period of immobility of the animal in a dose-dependent manner | discharge frequency, percentage in relation to basal activity (100%) ([3]; 0.5 μg/kg i.v., cumulative doses, mean ± standard error of the mean): 80.4 ± 5.54% | discharge frequency, percentage in relation to basal activity (100%) ([3]; 1 μg/kg i.v., cumulative doses, mean ± standard error of the mean, p ≤ 0.05): 56.6 ± 11.4% | discharge frequency, percentage in relation to basal activity (100%) ([3]; 2 μg/kg i.v., cumulative doses, mean ± standard error of the mean, p ≤ 0.05): 25.0 ± 8.68% | discharge frequency, percentage in relation to basal activity (100%) ([3]; 4 μg/kg i.v., cumulative doses, mean ± standard error of the mean, p ≤ 0.05): 1.56 ± 1.12% | discharge frequency, percentage in relation to basal activity (100%) ([3]; 8 μg/kg i.v., cumulative doses, p ≤ 0.05): 0.00% | minimal effective dose [5]: 0.04 mg/kg

Compound: O=C(CCCN1CCC(O)(c2ccc(Cl)cc2)CC1)c1ccc(F)cc1 [haloperidol, reference compound]
discharge frequency, percentage in relation to basal activity (100%) ([3]; haloperidol 16 μg/kg i.v., reversal after cumulative doses of Example 3, mean ± standard error of the mean): 110.5 ± 14.9%

Compound: [^125 I]-iodosulpride [[125I]-iodosulpride, reference compound]
pKd ([2]; radioligand, read-out: Kd (dissociation constant) for the human D2 receptor): 9.30 | pKd ([4]; radioligand, read-out: Kd (dissociation constant) for the human D3 receptor): 8.88
